# Reference: publication PMC11859184, “Synthesis and Evaluation of ^68Ga- and ^177Lu-Labeled [diF-Pro^14]Bombesin(6−14) Analogs for Detection and Radioligand Therapy of Gastrin-Releasing Peptide Receptor-Expressing Cancer” (Pharmaceuticals, 2025)
# Like-named read-outs stand apart in the source and are kept apart here.
# Key:
# [1] = Ex vivo biodistribution of 68Ga-labeled tracers in PC-3 tumor-bearing mice; details: mouse, 1 h pi; for tissue to tissue ratio at 1 h: male, NOD.Cg-Rag1^tm1Mom Il2rg^tm1Wjl/SzJ (NRG), iv, total radioactivity; for tissue uptake at 1 h: intravenous
# Method: PET/CT imaging and biodistribution studies were conducted using male NOD.Cg-Rag1^tm1Mom Il2rg^tm1Wjl/SzJ (NRG) mice following previously published procedures. The studies were carried out in compliance with the guidelines established by the Canadian Council on Animal Care and approved by Animal Ethics Committee of the University of British Columbia (protocol number A20-0113, approved on 30 September 2022). The mice were anaesthetized and subcutaneously implanted with 5 × 10^6 PC-3 cells (100 µL; 1:1 PBS/Matrigel) behind the left shoulder. PET/CT imaging and biodistribution studies were performed once the tumors reached a diameter of 5–8 mm, typically after approximately 4 weeks of growth.
# For ex vivo biodistribution studies, the mice were injected with the ^68Ga-labeled tracer (2–4 MBq) via a lateral caudal tail vein. For blocking [^68Ga]Ga-LW02060, the mice were co-injected with 100 μg of [D-Phe^6,Leu-NHEt^13,des-Met^14]Bombesin(6–14). For blocking [^68Ga]Ga-LW02080, the mice were co-injected with 100 μg of its nonradioactive standard Ga-LW02080. At 1 h pi, the mice were euthanized by CO2 inhalation. Blood and organs/tissues of interest were collected, weighed, and counted using a gamma counter.
# [2] = target: T1, GRPR (Homo sapiens, UniProt P30550); assay: Fluorometric intracellular calcium release assay using PC-3 cells; type: cell-based; details: 50 nM ligand, n = 4
# T1 construct: host or cells: PC-3 cells
# Method: The agonist/antagonist characteristics of LW02060, Ga-LW02060, Lu-LW02060, LW02080, Ga-LW02080, and Lu-LW02080 were determined following published procedures. The PC-3 cells were obtained from ATCC (via Cedarlane, Burlington, ON, Canada). A 96-well clear bottom black plate was seeded with 5 × 10^4 PC-3 cells in 100 μL growth media per well 24 h before the assay. The loading buffer (100 μL/well) containing a calcium-sensitive dye (FLIPR Calcium 6 assay kit from Molecular Devices, San Jose, CA, USA) was added into the 96-well plate, followed by 1 h incubation at 37 °C. The plate was then transferred into a FlexStation 3 microplate reader (Molecular Devices, San Jose, CA, USA). LW02060 (50 nM), Ga-LW02060 (50 nM), Lu-LW02060 (50 nM), LW02080 (50 nM), Ga-LW02080 (50 nM), Lu-LW02080 (50 nM), [D-Phe^6,Leu-NHEt^13,des-Met^14]Bombesin(6–14) (50 nM, antagonist control), bombesin (50 nM, agonist control), adenosine triphosphate (ATP, 50 nM, positive control), or DPBS (blank control) was added, and the fluorescent signals were measured for 2 min (λEx = 485 nm; λEm = 525 nm; n = 4). The relative fluorescent units (RFU = max − min) were calculated to determine the agonistic/antagonistic characteristics of LW02060, Ga-LW02060, Lu-LW02060, LW02080, Ga-LW02080, and Lu-LW02080, respectively.
# T1 sequence (P30550 whole entry): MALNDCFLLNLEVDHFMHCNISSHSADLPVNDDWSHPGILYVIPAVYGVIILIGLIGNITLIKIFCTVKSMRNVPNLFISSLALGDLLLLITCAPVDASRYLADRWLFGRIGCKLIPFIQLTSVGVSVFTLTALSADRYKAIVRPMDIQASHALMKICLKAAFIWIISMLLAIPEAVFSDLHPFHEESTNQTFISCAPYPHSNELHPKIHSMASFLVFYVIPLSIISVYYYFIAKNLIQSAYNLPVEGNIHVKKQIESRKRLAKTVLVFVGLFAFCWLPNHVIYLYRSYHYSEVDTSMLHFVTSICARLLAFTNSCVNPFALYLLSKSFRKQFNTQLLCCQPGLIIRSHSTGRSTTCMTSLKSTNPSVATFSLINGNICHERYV
compound,measurement,setting,value
"CC(C)C[C@@H](CN1CC(F)(F)C[C@H]1C(N)=O)NC(=O)[C@H](Cc1c[nH]cn1)NC(=O)CN(C)C(=O)[C@@H](NC(=O)[C@H](C)NC(=O)[C@H](Cc1c[nH]c2ccccc12)NC(=O)[C@H](CCC(N)=O)NC(=O)[C@@H](Cc1ccccc1)NC(=O)CN1CCC(NC(=O)CN2CCN(CC(=O)O)CCN(CC(=O)O)CCN(CC(=O)O)CC2)CC1)C(C)C [[^68Ga]Ga-LW02080, metal not drawn]",tissue to tissue ratio at 1 h,"[1]; tumor/blood, blocked (100 µg blocking agent co-injected), read-out: Tumor/blood uptake ratio",0.87 ± 0.15
same,tissue to tissue ratio at 1 h,"[1]; tumor/blood, n = 4, read-out: Tumor/blood uptake ratio",22.7 ± 4.13
same,tissue to tissue ratio at 1 h,"[1]; tumor/bone, blocked (100 µg blocking agent co-injected), read-out: Tumor/bone uptake ratio",5.52 ± 0.68
same,tissue to tissue ratio at 1 h,"[1]; tumor/bone, n = 4, read-out: Tumor/bone uptake ratio",69.8 ± 13.7
same,tissue to tissue ratio at 1 h,"[1]; tumor/kidney, blocked (100 µg blocking agent co-injected), read-out: Tumor/kidney uptake ratio",0.14 ± 0.03
same,tissue to tissue ratio at 1 h,"[1]; tumor/kidney, n = 4, read-out: Tumor/kidney uptake ratio",3.18 ± 0.75
same,tissue to tissue ratio at 1 h,"[1]; tumor/muscle, blocked (100 µg blocking agent co-injected), read-out: Tumor/muscle uptake ratio",3.61 ± 0.14
same,tissue to tissue ratio at 1 h,"[1]; tumor/muscle, n = 4, read-out: Tumor/muscle uptake ratio",117 ± 18.6
same,tissue to tissue ratio at 1 h,"[1]; tumor/pancreas, blocked (100 µg blocking agent co-injected), read-out: Tumor/pancreas uptake ratio",3.47 ± 0.64
same,tissue to tissue ratio at 1 h,"[1]; tumor/pancreas, n = 4, read-out: Tumor/pancreas uptake ratio",18.4 ± 2.86
same,tissue uptake at 1 h,"[1]; PC-3 tumor, 100 ug, blocked (100 µg blocking agent co-injected), read-out: PC-3 tumor uptake",1.71 ± 0.39 %ID/g
same,tissue uptake at 1 h,"[1]; PC-3 tumor, n = 4, read-out: PC-3 tumor uptake",7.36 ± 1.33 %ID/g
same,tissue uptake at 1 h,"[1]; adrenal glands, 100 ug, blocked (100 µg blocking agent co-injected), read-out: Adrenal glands uptake",0.69 ± 0.05 %ID/g
same,tissue uptake at 1 h,"[1]; adrenal glands, n = 4, read-out: Adrenal glands uptake",0.39 %ID/g
same,tissue uptake at 1 h,"[1]; blood, 100 ug, blocked (100 µg blocking agent co-injected), read-out: Blood uptake",2.02 ± 0.7 %ID/g
same,tissue uptake at 1 h,"[1]; blood, n = 4, read-out: Blood uptake",0.33 ± 0.08 %ID/g
same,tissue uptake at 1 h,"[1]; bone, 100 ug, blocked (100 µg blocking agent co-injected), read-out: Bone uptake",0.31 ± 0.06 %ID/g
same,tissue uptake at 1 h,"[1]; bone, n = 4, read-out: Bone uptake",0.11 ± 0.02 %ID/g
same,tissue uptake at 1 h,"[1]; brain, 100 ug, blocked (100 µg blocking agent co-injected), read-out: Brain uptake",0.06 ± 0.03 %ID/g
same,tissue uptake at 1 h,"[1]; brain, n = 4, read-out: Brain uptake",0.01 %ID/g
same,tissue uptake at 1 h,"[1]; fat, 100 ug, blocked (100 µg blocking agent co-injected), read-out: Fat uptake",0.25 ± 0.04 %ID/g
same,tissue uptake at 1 h,"[1]; fat, n = 4, read-out: Fat uptake",0.03 ± 0.01 %ID/g
same,tissue uptake at 1 h,"[1]; heart, 100 ug, blocked (100 µg blocking agent co-injected), read-out: Heart uptake",0.66 ± 0.18 %ID/g
same,tissue uptake at 1 h,"[1]; heart, n = 4, read-out: Heart uptake",0.11 ± 0.03 %ID/g
same,tissue uptake at 1 h,"[1]; kidneys, 100 ug, blocked (100 µg blocking agent co-injected), read-out: Kidneys uptake",11.2 ± 1.02 %ID/g
same,tissue uptake at 1 h,"[1]; kidneys, n = 4, read-out: Kidneys uptake",2.42 ± 0.81 %ID/g
same,tissue uptake at 1 h,"[1]; large intestine, 100 ug, blocked (100 µg blocking agent co-injected), read-out: Large intestine uptake",0.33 ± 0.1 %ID/g
same,tissue uptake at 1 h,"[1]; large intestine, n = 4, read-out: Large intestine uptake",0.3 ± 0.09 %ID/g
same,tissue uptake at 1 h,"[1]; liver, 100 ug, blocked (100 µg blocking agent co-injected), read-out: Liver uptake",1.05 ± 0.39 %ID/g
same,tissue uptake at 1 h,"[1]; liver, n = 4, read-out: Liver uptake",0.31 ± 0.07 %ID/g
same,tissue uptake at 1 h,"[1]; lungs, 100 ug, blocked (100 µg blocking agent co-injected), read-out: Lungs uptake",1.52 ± 0.44 %ID/g
same,tissue uptake at 1 h,"[1]; lungs, n = 4, read-out: Lungs uptake",0.28 ± 0.05 %ID/g
same,tissue uptake at 1 h,"[1]; muscle, 100 ug, blocked (100 µg blocking agent co-injected), read-out: Muscle uptake",0.53 ± 0.06 %ID/g
same,tissue uptake at 1 h,"[1]; muscle, n = 4, read-out: Muscle uptake",0.06 ± 0.02 %ID/g
same,tissue uptake at 1 h,"[1]; pancreas, 100 ug, blocked (100 µg blocking agent co-injected), read-out: Pancreas uptake",0.51 ± 0.18 %ID/g
same,tissue uptake at 1 h,"[1]; pancreas, n = 4, read-out: Pancreas uptake",0.38 ± 0.04 %ID/g
same,tissue uptake at 1 h,"[1]; small intestine, 100 ug, blocked (100 µg blocking agent co-injected), read-out: Small intestine uptake",1.04 ± 0.48 %ID/g
same,tissue uptake at 1 h,"[1]; small intestine, n = 4, read-out: Small intestine uptake",0.24 ± 0.07 %ID/g
same,tissue uptake at 1 h,"[1]; spleen, 100 ug, blocked (100 µg blocking agent co-injected), read-out: Spleen uptake",0.56 ± 0.17 %ID/g
same,tissue uptake at 1 h,"[1]; spleen, n = 4, read-out: Spleen uptake",0.18 ± 0.05 %ID/g
same,tissue uptake at 1 h,"[1]; stomach, 100 ug, blocked (100 µg blocking agent co-injected), read-out: Stomach uptake",0.38 ± 0.2 %ID/g
same,tissue uptake at 1 h,"[1]; stomach, n = 4, read-out: Stomach uptake",0.08 ± 0.04 %ID/g
same,tissue uptake at 1 h,"[1]; testes, 100 ug, blocked (100 µg blocking agent co-injected), read-out: Testes uptake",0.63 ± 0.2 %ID/g
same,tissue uptake at 1 h,"[1]; testes, n = 4, read-out: Testes uptake",0.12 ± 0.03 %ID/g
bombesin [reference compound],intracellular calcium release,[2],371 ± 17.9 RFU
